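Where inhibition never reached the appropriate level, the endpoint shown equals the highest concentration tested. Otherwise, values were interpolated linearly from a five-concentration, 48-hour dose response in 96-well plates. GI50 marks 50% less growth. TGI denotes the concentration required for complete inhibition of growth.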
Experiments:
Test in all cases: NCI tumour cell line growth inhibition, 48 h
[1] = system: A549 NSCLC
[2] = system: ACHN renal
[3] = system: CCRF-CEM leukemia
[4] = system: COLO 205 colon
[5] = system: DU-145 prostate
[6] = system: EKVX NSCLC
[7] = system: HCC-2998 colon
[8] = system: HCT-116 colon
[9] = system: HOP-92 NSCLC
[10] = system: HS 578T breast
[11] = system: K-562 leukemia
[12] = system: LOX IMVI melanoma
[13] = system: MALME-3M melanoma
[14] = system: MCF7 breast
[15] = system: MDA-MB-231 breast
[16] = system: MDA-MB-435
[17] = system: MOLT-4 leukemia
[18] = system: NCI-H23 lung
[19] = system: NCI-H460 lung
[20] = system: NCI/ADR-RES ovarian
[21] = system: OVCAR-3 ovarian
[22] = system: OVCAR-4 ovarian
[23] = system: OVCAR-5 ovarian
[24] = system: RPMI-8226 leukemia
[25] = system: SF-268 CNS
[26] = system: SF-295 CNS
[27] = system: SF-539 CNS
[28] = system: SK-MEL-5 melanoma
[29] = system: SK-OV-3 ovarian
[30] = system: SN12C renal
[31] = system: SNB-19 CNS
[32] = system: SNB-75 CNS
[33] = system: SW-620 colon
[34] = system: T-47D breast
[35] = system: TK-10 renal
[36] = system: U251 CNS
[37] = system: UACC-257 melanoma
[38] = system: UACC-62 melanoma
[39] = system: HL-60(TB) leukemia
[40] = system: IGROV1 ovarian
[41] = system: NCI-H522 lung
[42] = system: RXF 393 renal
[43] = system: SK-MEL-2 melanoma
[44] = system: 786-0 renal
[45] = system: CAKI-1 renal
[46] = system: HOP-62 NSCLC
[47] = system: NCI-H226 lung
[48] = system: PC-3 prostate
[49] = system: UO-31 renal

## Cc1ccc2c(c1)C(=O)C(c1c(-c3[nH]c(=O)c4ccc(C)cc4c3O)c(O)c3ccccc3c1O)=NC2=O
[1]
  GI50: 2.1 µM
  TGI: 4.26 µM
[2]
  GI50: 1.72 µM
  TGI: 4.36 µM
[3]
  GI50: 0.83 µM
  TGI: 8.03 µM
[4]
  GI50: 2.85 µM
  TGI: 12.8 µM
[5]
  GI50: 1.18 µM
  TGI: 2.9 µM
[6]
  GI50: 1.72 µM
  TGI: 5.66 µM
[7]
  GI50: 2.3 µM
  TGI: 4.97 µM
[8]
  GI50: 0.423 µM
  TGI: 1.53 µM
[9]
  GI50: 1.66 µM
  TGI: 5.1 µM
[10]
  GI50: 2.34 µM
  TGI: 6.33 µM
[11]
  GI50: 0.378 µM
  TGI: 3.44 µM
[12]
  GI50: 1.28 µM
  TGI: 2.71 µM
[13]
  GI50: 1.76 µM
  TGI: 3.54 µM
[14]
  GI50: 1.59 µM
  TGI: 4.58 µM
[15]
  GI50: 0.457 µM
  TGI: 3.86 µM
[16]
  GI50: 1.69 µM
  TGI: 3.29 µM
[17]
  GI50: 0.527 µM
  TGI: 3.02 µM
[18]
  GI50: 1.63 µM
  TGI: 4.04 µM
[19]
  GI50: 1.78 µM
  TGI: 3.39 µM
[20]
  GI50: 2.11 µM
  TGI: 7.56 µM
[21]
  GI50: 0.832 µM
  TGI: 2.4 µM
[22]
  GI50: 1.17 µM
  TGI: 2.43 µM
[23]
  GI50: 2.87 µM
  TGI: > 100 µM
[24]
  GI50: 2.32 µM
  TGI: 6.68 µM
[25]
  GI50: 2.24 µM
  TGI: 5.47 µM
[26]
  GI50: 1.67 µM
  TGI: 3.55 µM
[27]
  GI50: 1.67 µM
  TGI: 3.31 µM
[28]
  GI50: 1.87 µM
  TGI: 3.81 µM
[29]
  GI50: 2.15 µM
  TGI: 5.36 µM
[30]
  GI50: 1.8 µM
  TGI: 3.63 µM
[31]
  GI50: 2.31 µM
  TGI: 7.3 µM
[32]
  GI50: 1.42 µM
  TGI: 2.84 µM
[33]
  GI50: 1.56 µM
  TGI: 3.44 µM
[34]
  GI50: 1.48 µM
  TGI: 5.26 µM
[35]
  GI50: 2.91 µM
  TGI: 5.97 µM
[36]
  GI50: 1.24 µM
  TGI: 2.7 µM
[37]
  GI50: 3.04 µM
  TGI: 7.98 µM
[38]
  GI50: 1.76 µM
  TGI: 3.79 µM

## O=c1cc(-c2ccccc2)oc2cc(OCc3cn(Cc4ccc(F)cc4)nn3)cc(OCc3cn(Cc4ccc(F)cc4)nn3)c12
[3]
  GI50: > 100 µM
  TGI: > 100 µM
[7]
  GI50: > 100 µM
  TGI: > 100 µM
[8]
  GI50: 3.52 µM
  TGI: > 100 µM
[39]
  GI50: > 100 µM
  TGI: > 100 µM
[9]
  GI50: 1.89 µM
  TGI: 5.52 µM
[10]
  GI50: 3.28 µM
  TGI: > 100 µM
[40]
  GI50: 4.45 µM
  TGI: > 100 µM
[11]
  GI50: > 100 µM
  TGI: > 100 µM
[17]
  GI50: > 100 µM
  TGI: > 100 µM
[18]
  GI50: 3.7 µM
  TGI: > 100 µM
[41]
  GI50: 3.66 µM
  TGI: > 100 µM
[20]
  GI50: > 100 µM
  TGI: > 100 µM
[42]
  GI50: 1.78 µM
  TGI: 4.5 µM
[25]
  GI50: 3.52 µM
  TGI: > 100 µM
[43]
  GI50: 4.49 µM
  TGI: 33.1 µM
[31]
  GI50: 4.55 µM
  TGI: > 100 µM
[32]
  GI50: 1.69 µM
  TGI: 4.85 µM

## COc1cccc(C2CC(=O)c3cc(N4CCCC4)ccc3N2)c1 (stereo not given)
[44]
  TGI: > 100 µM
[1]
  TGI: > 100 µM
[2]
  TGI: 34.8 µM
[45]
  TGI: > 100 µM
[3]
  TGI: > 100 µM
[6]
  TGI: > 100 µM
[7]
  GI50: 0.0146 µM
  TGI: 0.389 µM
[46]
  TGI: > 100 µM
[9]
  GI50: > 100 µM
  TGI: > 100 µM
[10]
  TGI: > 100 µM
[11]
  TGI: > 100 µM
[12]
  TGI: > 100 µM
[14]
  GI50: 0.0739 µM
  TGI: > 100 µM
[15]
  GI50: 4.66 µM
  TGI: > 100 µM
[16]
  TGI: 1.49 µM
[47]
  TGI: 36.3 µM
[18]
  TGI: 0.163 µM
[41]
  TGI: 0.0624 µM
[20]
  TGI: 0.0491 µM
[21]
  TGI: > 100 µM
[22]
  TGI: > 100 µM
[23]
  GI50: > 100 µM
  TGI: > 100 µM
[48]
  TGI: > 100 µM
[24]
  TGI: > 100 µM
[26]
  TGI: > 100 µM
[27]
  TGI: > 100 µM
[43]
  GI50: 64.5 µM
  TGI: > 100 µM
[31]
  TGI: > 100 µM
[33]
  TGI: > 100 µM
[34]
  TGI: > 100 µM
[35]
  GI50: 45.5 µM
  TGI: > 100 µM
[37]
  TGI: > 100 µM
[49]
  TGI: 65.8 µM

Reference: PubChem BioAssay (NCI)
